From patent publication US20060063736A1, “Compositions and methods for inhibiting mucin-type O-linked glycosylation” (priority 2004, published 2006)

Tests used:
mppGalNAcT-11 = target: T1, mppGalNAcT-11 (Mus musculus, UniProt Q921L8); assay: ELLA for ppGalNAcTs, mppGalNAcT-11; type: biochemical, murine; settings: 20 μM UDP-GalNAc, 50 μM EA2 peptide 4
T1 construct: plasmids encoding truncated secreted ppGalNAcTs-1 to −5, -7, -10 and -11; made in house; host or cells: COS-7
T1 sequence (Q921L8 30-608 limits assumed): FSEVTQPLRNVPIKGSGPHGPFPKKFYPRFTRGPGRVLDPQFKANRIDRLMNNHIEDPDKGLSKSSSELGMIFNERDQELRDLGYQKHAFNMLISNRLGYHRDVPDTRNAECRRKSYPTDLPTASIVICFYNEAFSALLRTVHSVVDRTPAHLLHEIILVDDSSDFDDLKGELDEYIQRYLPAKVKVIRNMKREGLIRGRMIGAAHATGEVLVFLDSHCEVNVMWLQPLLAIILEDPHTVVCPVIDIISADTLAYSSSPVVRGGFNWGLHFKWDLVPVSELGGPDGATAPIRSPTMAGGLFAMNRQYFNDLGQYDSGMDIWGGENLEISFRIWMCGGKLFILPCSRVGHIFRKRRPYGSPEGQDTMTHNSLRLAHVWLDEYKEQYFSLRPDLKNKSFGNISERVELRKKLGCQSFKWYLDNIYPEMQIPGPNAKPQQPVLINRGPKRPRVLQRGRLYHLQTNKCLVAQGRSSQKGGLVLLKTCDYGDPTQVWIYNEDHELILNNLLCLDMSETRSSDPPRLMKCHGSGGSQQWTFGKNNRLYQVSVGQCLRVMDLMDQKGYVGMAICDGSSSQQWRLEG
Procedure: (§1) COS-7 cells were transiently transfected with plasmids encoding truncated secreted ppGalNAcTs-1 to −5, -7, -10 and -11 as previously described. Hagen et al. (1997) J. Biol. Chem. 272:13843-13848. The crude conditioned medium was used as the enzyme source.
Standard reaction conditions for ppGalNAcT assays were as follows. The reaction mixture contained the following components in a final volume of 25 μL: 10 mM MnCl2, 40 mM sodium cacodylate, 40 mM β-mercaptoethanol, 0.1% Triton X-100, pH 6.5, 5 μL of conditioned media, and various concentrations of EA2 peptide 4, UDP-GalNAc and inhibitor. All uridine-based compounds were dissolved in dimethyl sulfoxide (DMSO). […] Reaction rates were linear over the period monitored (20-30 min).
96-Well NeutrAvidin-coated plates were prewashed 3 times with 200 μL of wash buffer (25 mM Tris, 150 mM NaCl, 0.1% bovine serum albumin (BSA) (w/v), and 0.05% Tween (v/v), pH 7.2). […] After 3 washes with 200 μL of PBS, bound HPA-HRP was quantified by the addition of 100 μL of TMB peroxide solution. […] HRP activity was terminated by the addition of 50 μL of 2 N H2SO4 and the resulting solution was analyzed at 450 nm using a UV/Vis microtiter plate reader. The amount of product generated by the ppGalNAcT was extrapolated from absorbance values using an equation fit to the standard curve derived from Origin 6.1 software.

mppGalNAcT-1 = target: T2, mppGalNAcT-1 (Mus musculus, UniProt O08912); assay: ELLA for ppGalNAcTs, mppGalNAcT-1; type: biochemical, murine; settings: for IC50: ELLA, 20 μM UDP-GalNAc, 50 μM EA2 peptide 4; for mode of inhibition with respect to UDP-GalNAc: mppGalNAcT-1; for Ki: mppGalNAcT-1, with respect to UDP-GalNAc, read-out: KI versus UDP-GalNAc
T2 construct: plasmids encoding truncated secreted ppGalNAcTs-1 to −5, -7, -10 and -11; made in house; host or cells: COS-7
T2 sequence (O08912 29-559 limits assumed): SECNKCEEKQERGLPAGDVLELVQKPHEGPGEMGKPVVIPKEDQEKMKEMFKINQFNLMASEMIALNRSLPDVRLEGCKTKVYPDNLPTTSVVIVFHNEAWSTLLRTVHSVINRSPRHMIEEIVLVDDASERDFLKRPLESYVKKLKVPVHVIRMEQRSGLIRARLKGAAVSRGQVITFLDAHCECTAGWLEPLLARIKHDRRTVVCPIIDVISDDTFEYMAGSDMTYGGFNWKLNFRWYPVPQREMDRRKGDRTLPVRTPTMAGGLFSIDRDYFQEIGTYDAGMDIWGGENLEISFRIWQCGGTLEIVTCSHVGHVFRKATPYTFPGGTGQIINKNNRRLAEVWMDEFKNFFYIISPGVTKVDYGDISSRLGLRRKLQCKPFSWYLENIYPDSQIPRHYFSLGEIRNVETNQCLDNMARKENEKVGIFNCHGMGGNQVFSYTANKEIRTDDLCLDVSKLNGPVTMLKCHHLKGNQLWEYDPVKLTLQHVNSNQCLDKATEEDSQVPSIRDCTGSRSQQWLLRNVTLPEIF
Procedure: as §1
Standard reaction conditions for ppGalNAcT assays were as follows. The reaction mixture contained the following components in a final volume of 25 μL: 10 mM MnCl2, 40 mM sodium cacodylate, 40 mM β-mercaptoethanol, 0.1% Triton X-100, pH 6.5, 5 μL of conditioned media, and various concentrations of EA2 peptide 4, UDP-GalNAc and inhibitor. All uridine-based compounds were dissolved in dimethyl sulfoxide (DMSO). The concentration of DMSO in the reaction mixture was limited to 2% (v/v), as higher concentrations decreased ppGalNAcT activity. For inhibitor assays, reaction mixtures for positive controls also contained 2% DMSO. Unless otherwise stated, inhibitor assays were performed using 20 μM UDP-GalNAc and 50 μM EA2 peptide 4, the KM values for both substrates. Reactions were incubated at 37° C. and were terminated by the addition of 10 μL of 0.1 M EDTA. All experiments were performed in duplicate. Reaction rates were linear over the period monitored (20-30 min).
96-Well NeutrAvidin-coated plates were prewashed 3 times with 200 μL of wash buffer (25 mM Tris, 150 mM NaCl, 0.1% bovine serum albumin (BSA) (w/v), and 0.05% Tween (v/v), pH 7.2). Reactions were then transferred to the 96-well plates, incubated for 1 hour at room temperature (rt) and subsequently washed 3 times with 200 μL of phosphate-buffered saline (PBS) containing 0.5% BSA and 0.05% Tween, pH 7.1. A 100-μL solution of HPA-HRP in standard PBS buffer (1 μg/mL, pH 7.4) was added and the reaction was incubated for 1 h at rt. After 3 washes with 200 μL of PBS, bound HPA-HRP was quantified by the addition of 100 μL of TMB peroxide solution. The solutions were incubated for 5-15 min in the dark at rt. HRP activity was terminated by the addition of 50 μL of 2 N H2SO4 and the resulting solution was analyzed at 450 nm using a UV/Vis microtiter plate reader. The amount of product generated by the ppGalNAcT was extrapolated from absorbance values using an equation fit to the standard curve derived from Origin 6.1 software.
In order to screen the library in high-throughput format, a non-radioactive enzyme linked lectin assay (ELLA) for ppGalNAcTs was developed. As an acceptor substrate, the EA2 peptide (PTTDSTTPAPTTK; SEQ ID NO:12), a fragment of rat submandibular mucin, was chosen. Albone et al. (1994) J. Biol. Chem. 269:16845-16852. This peptide has been previously shown to be an efficient substrate for murine (m) ppGalNAcT-1 and is preferentially glycosylated at the fourth Thr residue from the N-terminus (underlined). Ten Hagen et al. (2001, supra). Biotinylation of EA2 allowed capture of (glyco)peptides onto 96-well NeutrAvidin-coated plates. The GalNAc-modified glycopeptide product could be detected using the α-GalNAc-specific lectin Helix pomatia agglutinin (HPA) (Hammarstrom et al. (1977) Biochemistry 16:2750-2755) conjugated to horseradish peroxidase (HRP). The bound HRP was quantified by addition of a chromogenic substrate.

SMILES | IC50 (mppGalNAcT-11) | IC50 (mppGalNAcT-1) | mode of inhibition with respect to UDP-GalNAc (mppGalNAcT-1) | Ki (mppGalNAcT-1)
O=c1ccn([C@@H]2O[C@H](CON=Cc3ccc(O)c(O)c3O)[C@@H](O)[C@H]2O)c(=O)[nH]1 [1-68A] | 39 ± 3 µM | 21 ± 1 µM | competitive | 7.8 ± 0.1 µM
O=C(CON=Cc1ccc(O)c(O)c1O)NC[C@H]1O[C@@H](n2ccc(=O)[nH]c2=O)[C@H](O)[C@@H]1O [2-68A] | 32 ± 3 µM | 24 ± 2 µM | competitive | 7.8 ± 1 µM
